This is an account of results in patent US20250136722A1, “CYTOTOXICITY TARGETING CHIMERAS” (GLAXOSMITHKLINE INTELLECTUAL PROPERTY DEVELOPMENT LIMITED, priority 2021, published 2025).

Each structure is given as a SMILES string. Counter-ions that a name gives are not always drawn.

This test addresses T1, CHOK1 cells engineered to overexpress human CCR2 (Homo sapiens, UniProt P41597).
T1 construct: expressed in transfected cells; host or cells: CHOK1 cells
The experiment in a line: Antibody dependent cellular cytotoxicity (ADCC) reporter assay (Example 199). It is filed as cell-based. Particulars: with anti-cotinine antibody SEQ ID NO: 11/12; CHOK1-human CCR2 target cells, Jurkat FcγRIIIa NFAT-luciferase reporter cells; 12-18 hours; read-out: ADCC Reporter Assay pEC50 (converted). How it is done: An antibody dependent cellular cytoxicity reporter assay was conducted using the following four assay components: (i) ARM compound of Formula (I) targeting CCR2 (concentrations ranging from 1 pM to 10 μM) (ii) anti-cotinine antibody having a heavy chain sequence of SEQ ID NO: 11 and a light chain sequence of SEQ ID NO: 12 (rabbit variable region with human IgG1 Fc domain containing a DE mutation (S239D/1332E)) (concentrations ranging from 0.01 μg/mL to 200 μg/mL); (iii) target cells: CHOK1 cells engineered to overexpress either human CCR2 (typically 1000-20,000 cells per well) and (iv) reporter cells: Jurkat cells engineered to express FcγRIIIa with the reporter gene luciferase under the control of the NFAT promoter (typically 3000-75,000 cells per well). Reagents were combined in a final volume of 20 μL in a 384-well tissue culture treated plate. All four assay components were incubated together for about 12-18 hours. Thereafter, BioGlo Detection reagent (Promega) was added to the wells to lyse the cells and provide a substrate for the luciferase reporter protein. Luminescence signal was measured on a microplate reader and signal:background was calculated by dividing the signal of a test well by the signal obtained when no heterobivalent compound of Formula (I) was added. EC50 calculations were done using Graphpad Prism Software, specifically a nonlinear regression curve fit (Y=Bottom+(Top−Bottom)/(1+10^((Log EC50−X)*HillSlope))).
ARMs compounds of Formula (I) of the invention were tested for ADCC activity in the above assay in or more experimental runs and the results are shown in Table 3 below. Potency of the compounds of Formula (I) of the invention is reported as a pEC50 value. The pEC50 value is the negative log of the EC50 value, wherein the EC50 value is the half maximal effective concentration measured in molar (M). For compounds tested in more than one experimental run, the pEC50 value is reported as an average.
For orientation: In a reporter assay the amount or activity of a reporter protein is the signal.
Consider `CC(C)N(C)[C@@H]1CC[C@H](N2CC[C@H](Nc3ncnc4ccc(C(F)(F)F)cc34)C2=O)[C@H](NC(=O)C2CCN(C3CCN(C(=O)CCOCCOCCNC(=O)[C@H]4CC(=O)N(C)[C@@H]4c4cccnc4)CC3)CC2)C1` [Example 172, N-((1R,2S,5R)-5-(Isopropyl(methyl)amino)-2-((S)-2-oxo-3-((6-(trifluoromethyl)quinazolin-4-yl)amino)pyrrolidin-1-yl)cyclohexyl)-1′-(3-(2-(2-((2S,3S)-1-methyl-5-oxo-2-(pyridin-3-yl)pyrrolidine-3-carboxamido)ethoxy)ethoxy)propanoyl)-[1,4′-bipiperidine]-4-carboxamide], for which the EC50 was 0.794 nM. As for `CC(C)N(C)[C@@H]1CC[C@H](N2CC[C@H](Nc3ncnc4ccc(C(F)(F)F)cc34)C2=O)[C@H](NC(=O)C2CC=C(c3ccc(OCCCCCCNC(=O)[C@H]4CC(=O)N(C)[C@@H]4c4cccnc4)cc3)CC2)C1` (stereo partly drawn) [Example 158, (2S,3S)-N-(6-((4′-(((1R,2S,5R)-5-(Isopropyl(methyl)amino)-2-((S)-2-oxo-3-((6-(trifluoromethyl)quinazolin-4-yl)amino)pyrrolidin-1-yl)cyclohexyl)carbamoyl)-2′,3′,4′,5′-tetrahydro-[1,1′-biphenyl]-4-yl)oxy)hexyl)-1-methyl-5-oxo-2-(pyridin-3-yl)pyrrolidine-3-carboxamide], the figure is 2.51 nM; as for `CC(C)N(C)[C@@H]1CC[C@H](N2CC[C@H](Nc3ncnc4ccc(C(F)(F)F)cc34)C2=O)[C@H](NC(=O)[C@H]2CC[C@@H](NC(=O)C3CCC4(CC3)CCN(CCNC(=O)[C@H]3CC(=O)N(C)[C@@H]3c3cccnc3)CC4)CC2)C1` [Example 170, N-((1S,4s)-4-(((1R,2S,5R)-5-(Isopropyl(methyl)amino)-2-((S)-2-oxo-3-((6-(trifluoromethyl)quinazolin-4-yl)amino)pyrrolidin-1-yl)cyclohexyl)carbamoyl)cyclohexyl)-3-(2-((2S,3S)-1-methyl-5-oxo-2-(pyridin-3-yl)pyrrolidine-3-carboxamido)ethyl)-3-azaspiro[5.5]undecane-9-carboxamide], 1 nM. As to `CC(C)N(C)[C@@H]1CC[C@H](N2CC[C@H](Nc3ncnc4ccc(C(F)(F)F)cc34)C2=O)[C@H](NC(=O)CCCCCCCCNCCCCCCCCCCNC(=O)[C@H]2CC(=O)N(C)[C@@H]2c2cccnc2)C1` [compound 196], the EC50 was 0.251 nM. In the case of `CC(C)N(C)[C@@H]1CC[C@H](N2CC[C@H](Nc3ncnc4ccc(C(F)(F)F)cc34)C2=O)[C@H](NC(=O)[C@H]2CC[C@@H](NC(=O)CCOCCCOCCCNC(=O)[C@H]3CC(=O)N(C)[C@@H]3c3cccnc3)CC2)C1` [Example 197, (2S,3S)-N-(3-(3-(3-(((1S,4s)-4-(((1R,2S,5R)-5-(Isopropyl(methyl)amino)-2-((S)-2-oxo-3-((6-(trifluoromethyl)quinazolin-4-yl)amino)pyrrolidin-1-yl)cyclohexyl)carbamoyl)cyclohexyl)amino)-3-oxopropoxy)propoxy)propyl)-1-methyl-5-oxo-2-(pyridin-3-yl)pyrrolidine-3-carboxamide], the EC50 was 0.251 nM. The result for `CC(C)N(C)[C@@H]1CC[C@H](N2CC[C@H](Nc3ncnc4ccc(C(F)(F)F)cc34)C2=O)[C@H](NC(=O)C2CCC(N3CCC(S(=O)(=O)NCCCCCCNC(=O)[C@H]4CC(=O)N(C)[C@@H]4c4cccnc4)CC3)CC2)C1` (single isomer, unassigned) [Example 148] reads 3.16 nM; that for `CC(C)N(C)[C@@H]1CC[C@H](N2CC[C@H](Nc3ncnc4ccc(C(F)(F)F)cc34)C2=O)[C@H](NC(=O)[C@H]2C[C@H](NC(=O)CCO[C@H]3CC[C@@H](OCCNC(=O)[C@H]4CC(=O)N(C)[C@@H]4c4cccnc4)CC3)C2)C1` [Example 116], 5.01 nM. As to `CC(C)N(C)[C@@H]1CC[C@H](N2CC[C@H](Nc3ncnc4ccc(C(F)(F)F)cc34)C2=O)[C@H](NC(=O)CCCCOCCCCCCCCOCCCCNC(=O)[C@H]2CC(=O)N(C)[C@@H]2c2cccnc2)C1` [Example 161, (2S,3S)-N-(4-((8-((5-(((1R,2S,5R)-5-(Isopropyl(methyl)amino)-2-((S)-2-oxo-3-((6-(trifluoromethyl)quinazolin-4-yl)amino)pyrrolidin-1-yl)cyclohexyl)amino)-5-oxopentyl)oxy)octyl)oxy)butyl)-1-methyl-5-oxo-2-(pyridin-3-yl)pyrrolidine-3-carboxamide], the EC50 is 1.58 nM.

Turning to `CN1C(=O)C[C@H](C(=O)NCCOCC(=O)NCCOCCC(=O)NCCOCCC(=O)N[C@@H]2C[C@H](NC(C)(C)C)CC[C@@H]2N2CC[C@H](Nc3ncnc4ccc(C(F)(F)F)cc34)C2=O)[C@H]1c1cccnc1` [Example 106], the EC50 was 0.558 nM. On to `CC(C)N(C)[C@@H]1CC[C@H](N2CC[C@H](Nc3ncnc4ccc(C(F)(F)F)cc34)C2=O)[C@H](NC(=O)c2ccnc(CCCOCCOCCOCCOCCNC(=O)[C@H]3CC(=O)N(C)[C@@H]3c3cccnc3)c2)C1` [Example 160, N-((1R,2S,5R)-5-(Isopropyl(methyl)amino)-2-((S)-2-oxo-3-((6-(trifluoromethyl)quinazolin-4-yl)amino)pyrrolidin-1-yl)cyclohexyl)-2-(1-((2S,3S)-1-methyl-5-oxo-2-(pyridin-3-yl)pyrrolidin-3-yl)-1-oxo-5,8,11,14-tetraoxa-2-azaheptadecan-17-yl)isonicotinamide, 3Formic acid salt], for which the EC50 was 2 nM. As to `CC(C)N(C)[C@@H]1CC[C@H](N2CC[C@H](Nc3ncnc4ccc(C(F)(F)F)cc34)C2=O)[C@H](NC(=O)c2ccc(OC3CCN(CCOCCOCCNC(=O)[C@H]4CC(=O)N(C)[C@@H]4c4cccnc4)CC3)cc2)C1` [Example 91], the EC50 was 2 nM. For the compound `CN1C(=O)C[C@H](C(=O)NCCOCCOCCC(=O)N[C@H]2CC[C@@H](C(=O)N[C@@H]3C[C@H](NC(C)(C)C)CC[C@@H]3N3CC[C@H](Nc4ncnc5ccc(C(F)(F)F)cc45)C3=O)CC2)[C@H]1c1cccnc1` [Example 120, (2S,3S)-N-(2-(2-(3-(((1S,4s)-4-(((1R,2S,5R)-5-(tert-Butylamino)-2-((S)-2-oxo-3-((6-(trifluoromethyl)quinazolin-4-yl)amino)pyrrolidin-1-yl)cyclohexyl)carbamoyl)cyclohexyl)amino)-3-oxopropoxy)ethoxy)ethyl)-1-methyl-5-oxo-2-(pyridin-3-yl)pyrrolidine-3-carboxamide], the EC50 is 5.46 nM.

On to `CC(C)N(C)[C@@H]1CC[C@H](N2CC[C@H](Nc3ncnc4ccc(C(F)(F)F)cc34)C2=O)[C@H](NC(=O)CCCOC[C@H]2CC[C@H](COCCNC(=O)[C@H]3CC(=O)N(C)[C@@H]3c3cccnc3)CC2)C1` [Example 58], for which the EC50 is 50.1 nM. The result for `CC(C)N(C)[C@@H]1CC[C@H](N2CC[C@H](Nc3ncnc4ccc(C(F)(F)F)cc34)C2=O)[C@H](NC(=O)c2cnn(C3CCN(CCOCCOCCNC(=O)[C@H]4CC(=O)N(C)[C@@H]4c4cccnc4)CC3)c2)C1` [Example 92, N-((1R,2S,5R)-5-(Isopropyl(methyl)amino)-2-((S)-2-oxo-3-((6-(trifluoromethyl)quinazolin-4-yl)amino)pyrrolidin-1-yl)cyclohexyl)-1-(1-(2-(2-(2-((2S,3S)-1-methyl-5-oxo-2-(pyridin-3-yl)pyrrolidine-3-carboxamido)ethoxy)ethoxy)ethyl)piperidin-4-yl)-1H-pyrazole-4-carboxamide] reads 6.31 nM.
